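Tested at 5 concentrations; 48 h exposure; 96-well plates; endpoints linearly interpolated, else capped at highest concentration. GI50 marks 50% less growth.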 Active and inactive are the calls of the source. No stated cut-off is given here; in the data, active = GI50 up to about 1.1 µM and inactive = higher.
Tests used:
Experiment in all cases: growth of human tumour cells (NCI), 48 h
DMS-114 = tested on: DMS-114
SNB-78 = tested on: SNB-78
DLD-1 = tested on: DLD-1
DMS-273 = tested on: DMS-273
XF498 = tested on: XF498
RXF 631 = tested on: RXF 631
M19-MEL = tested on: M19-MEL
HOP-18 = tested on: HOP-18
KM-20L2 = tested on: KM-20L2

Measured: GI50

CCCCC1NC=Nc2c1ccc1c2[nH]c2ccccc21 (stereo unspecified)
inactive: DMS-114 1.76 µM | SNB-78 13 µM | DLD-1 2.47 µM | DMS-273 1.7 µM | XF498 1.89 µM | RXF 631 2.6 µM | M19-MEL 3.26 µM | HOP-18 10.2 µM

CC(=O)OC1(C)C(=O)OC1(C)C(C)=O (stereo unspecified)
inactive: DMS-114 > 100 µM | SNB-78 > 100 µM | DLD-1 > 100 µM | DMS-273 > 100 µM | RXF 631 > 100 µM | M19-MEL > 100 µM | KM-20L2 > 100 µM | HOP-18 > 100 µM

C/C(=N/NS(=O)(=O)c1ccc(C)cc1)c1cccc[n+]1[O-]
inactive: DMS-114 > 100 µM | SNB-78 > 100 µM | DLD-1 > 100 µM | DMS-273 > 100 µM | XF498 > 100 µM | RXF 631 > 100 µM | M19-MEL > 100 µM | KM-20L2 > 100 µM | HOP-18 > 100 µM

CSC(C1c2ccccc2N(C)C2=NC(=O)N(C)C(=O)C21Cl)S(=O)(=O)c1ccc(C)cc1 (stereo unspecified)
inactive: DMS-114 49.1 µM | SNB-78 46.9 µM | DLD-1 40.9 µM | DMS-273 27.3 µM | XF498 > 100 µM | RXF 631 39.6 µM | M19-MEL 33.4 µM | KM-20L2 > 100 µM | HOP-18 83.2 µM

C/C(CC(=O)CCCC(=O)Nc1ccc(Cl)cc1Cl)=N/NC(=O)CC#N
inactive: DMS-114 > 100 µM | SNB-78 > 100 µM | DLD-1 > 100 µM | DMS-273 > 100 µM | XF498 > 100 µM | RXF 631 > 100 µM | M19-MEL > 100 µM | KM-20L2 > 100 µM | HOP-18 > 100 µM

CC(=O)OCC1OC(n2cccnc2=O)C(OC(C)=O)C1OC(C)=O (stereo unspecified)
inactive: DMS-114 > 100 µM | SNB-78 > 100 µM | DLD-1 > 100 µM | DMS-273 > 100 µM | XF498 > 100 µM | RXF 631 > 100 µM | M19-MEL > 100 µM | KM-20L2 > 100 µM | HOP-18 > 100 µM

C(=C1\CCC/C(=C/c2ccccc2)C1=NNc1ccccc1)/c1ccccc1
inactive: DMS-114 > 100 µM | SNB-78 > 100 µM | DLD-1 > 100 µM | DMS-273 > 100 µM | RXF 631 > 100 µM | M19-MEL > 100 µM | KM-20L2 > 100 µM | HOP-18 > 100 µM

CCn1c(=O)nc2n(-c3ccc(SC)cc3)c3ccccc3nc-2c1=O
inactive: DMS-114 69.7 µM | SNB-78 > 100 µM | DLD-1 > 100 µM | DMS-273 71.1 µM | RXF 631 > 100 µM | M19-MEL 30.7 µM | KM-20L2 40.5 µM | HOP-18 > 100 µM

COc1cc(C(=O)C/C(CCC(=O)Nc2ccccc2[N+](=O)[O-])=N\NC(=O)C(N)=O)ccc1O
inactive: DMS-114 > 100 µM | SNB-78 > 100 µM | DLD-1 > 100 µM | DMS-273 > 100 µM | RXF 631 > 100 µM | M19-MEL > 100 µM | KM-20L2 > 100 µM | HOP-18 > 100 µM

Source: ChEMBL document CHEMBL1201862, “PubChem BioAssay data set” (2004)
